Source: ChEMBL document CHEMBL4765464, “Discovery of BMS-986144, a Third-Generation, Pan-Genotype NS3/4A Protease Inhibitor for the Treatment of Hepatitis C Virus Infection” (J Med Chem, 2020)

How the values were obtained:
[1] = Inhibition of recombinant full length NS3/4A protease in Hepatitis C virus subtype 3a infected in human HuH7 cells using Ac-Asp-Glu-Asp (EDANS)-Glu-Glu-Abu-(COO) Ala-Ser-Lys (DABCYL)-NH2 as substrate by FRET assay; details: Huh-7
[2] = Metabolic stability in human liver microsomes assessed as half-life incubated for 5 to 45 mins in presence of NADPH by LC-MS analysis; type: ADME, Microsome; details: time 5-45 min
[3] = Inhibition of recombinant full length NS3/4A protease in Hepatitis C virus subtype 1a replicon infected in human HuH7 cells preincubated for 3 days followed by substrate addition and measured after 2 hrs by renilla luciferase reporter gene assay; type: cell-based; details: Huh-7
[4] = Inhibition of recombinant full length NS3/4A protease in Hepatitis C virus subtype 1b replicon infected in human HuH7 cells preincubated for 3 days followed by substrate addition and measured after 2 hrs by renilla luciferase reporter gene assay; type: cell-based; details: Huh-7
[5] = Inhibition of recombinant full length NS3/4A protease in Hepatitis C virus subtype 2a replicon infected in human HuH7 cells preincubated for 3 days followed by substrate addition and measured after 2 hrs by renilla luciferase reporter gene assay; type: cell-based; details: Huh-7
[6] = Inhibition of recombinant full length NS3/4A protease in Hepatitis C virus subtype 3a replicon infected in human HuH7 cells preincubated for 3 days followed by substrate addition and measured after 2 hrs by renilla luciferase reporter gene assay; type: cell-based; details: Huh-7
[7] = Inhibition of recombinant full length NS3/4A R155K mutant protease in Hepatitis C virus subtype 1a replicon infected in human HuH7 cells preincubated for 3 days followed by substrate addition and measured after 2 hrs by renilla luciferase reporter gene assay; type: cell-based; details: Huh-7
[8] = Inhibition of recombinant full length NS3/4A D168V mutant protease in Hepatitis C virus subtype 1b replicon infected in human HuH7 cells preincubated for 3 days followed by substrate addition and measured after 2 hrs by renilla luciferase reporter gene assay; type: cell-based; details: Huh-7
[9] = Drug concentration in rat plasma at 5 mg/kg, po measured upto 24 hrs; type: ADME, organism-based; details: read-out: Ct
[10] = Drug concentration in rat liver at 5 mg/kg, po measured upto 24 hrs; type: ADME, organism-based; details: read-out: Ct
[11] = Oral bioavailability in rat at 5 mg/kg; type: ADME, organism-based; details: in vivo
[12] = Half-life in dog at 3 mg/kg, po or 1 mg/kg, iv; type: ADME, organism-based, Canis lupus familiaris; details: in vivo
[13] = Clearance in rat at 5 mg/kg, po or 1 mg/kg, iv; type: ADME, organism-based; details: in vivo
[14] = AUC in rat at 5 mg/kg, po or 1 mg/kg, iv; type: ADME, organism-based; design: dose 5 mg/kg; details: in vivo
[15] = Clearance in dog at 3 mg/kg, po or 1 mg/kg, iv; type: ADME, organism-based, Canis lupus familiaris; details: in vivo
[16] = AUC in dog at 3 mg/kg, po or 1 mg/kg, iv; type: ADME, organism-based, Canis lupus familiaris; design: dose 3 mg/kg; details: in vivo
[17] = Drug concentration in dog plasma at 3 mg/kg, po measured upto 24 hrs; type: ADME, organism-based, Canis lupus familiaris; details: read-out: Ct
[18] = Half-life in cynomolgus monkey at 3 mg/kg, po or 1 mg/kg, iv; type: ADME, organism-based, Macaca fascicularis; details: in vivo
[19] = AUC in cynomolgus monkey at 3 mg/kg, po or 1 mg/kg, iv; type: ADME, organism-based, Macaca fascicularis; design: dose 3 mg/kg; details: in vivo
[20] = Clearance in rat at 1 mg/kg, iv; type: ADME, organism-based; details: in vivo
[21] = Half life in rat at 1 mg/kg, iv; type: ADME, organism-based; details: in vivo
[22] = AUC (0 to 24 hrs) in rat at 5 mg/kg, po; type: ADME, organism-based; design: time < 24 hr, route oral, dose 5 mg/kg; details: in vivo
[23] = Cmax in rat at 5 mg/kg, po; type: ADME, organism-based; design: route oral, dose 5 mg/kg; details: in vivo
[24] = Ratio of drug concentration in liver to plasma in rat at 5 mg/kg, po measured upto 24 hrs; type: ADME, organism-based; details: liver and plasma
Cytochrome P450 3A4 [25] = molecular target: T1, Cytochrome P450 3A4 (Homo sapiens, UniProt P08684); assay: Inhibition of human CYP3A4 in human pooled liver microsomes at 0.002 to 40 uM in presence of midazolam as substrate preincubated in presence of NADPH followed by addition of substrate by LC-MS/MS analysis; type: ADME; details: TDE = time-dependent effect, dose 0.002-40 µM, time <=30 min
Cytochrome P450 3A4 [26] = molecular target: T1, Cytochrome P450 3A4; assay: Inhibition of human CYP3A4 in human pooled liver microsomes at 0.002 to 40 uM in presence of testosterone as substrate preincubated in presence of NADPH followed by addition of substrate by LC-MS/MS analysis; type: ADME; details: TDE = time-dependent effect, dose 0.002-40 µM, time <=30 min

T1 sequence (P08684 whole entry): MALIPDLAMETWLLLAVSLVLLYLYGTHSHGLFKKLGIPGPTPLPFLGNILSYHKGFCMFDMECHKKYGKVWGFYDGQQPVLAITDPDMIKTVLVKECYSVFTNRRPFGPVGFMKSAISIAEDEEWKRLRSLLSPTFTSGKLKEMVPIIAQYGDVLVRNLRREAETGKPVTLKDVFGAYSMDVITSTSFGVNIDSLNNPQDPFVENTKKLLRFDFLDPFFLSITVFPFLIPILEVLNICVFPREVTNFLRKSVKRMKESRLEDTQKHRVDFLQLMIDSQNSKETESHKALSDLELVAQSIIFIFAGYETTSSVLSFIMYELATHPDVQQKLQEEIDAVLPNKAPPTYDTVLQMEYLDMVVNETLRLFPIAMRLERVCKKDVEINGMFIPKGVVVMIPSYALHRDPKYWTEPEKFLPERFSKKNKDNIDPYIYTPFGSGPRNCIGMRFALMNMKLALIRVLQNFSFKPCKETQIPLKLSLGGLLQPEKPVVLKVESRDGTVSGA

Row | Structure (SMILES) | IC50 [1] | half-life [2] | EC50 [3] | EC50 [4] | EC50 [5] | EC50 [6] | EC50 [7] | EC50 [8] | further results
1 | COc1cnc(O[C@@H]2C[C@H]3C(=O)N[C@]4(C(=O)NS(=O)(=O)C5CC5)C[C@H]4/C=C\CCCCC[C@H](NC(=O)OC(C)(C)C)C(=O)N3C2)c2cc(Cl)ccc12 | 51 nM | 6.4 min |  |  |  |  |  |  | 
2 | [2H]C([2H])([2H])Oc1cnc(O[C@@H]2C[C@H]3C(=O)N[C@]4(C(=O)NS(=O)(=O)C5(C)CC5)C[C@H]4/C=C\CC[C@@H](C)C[C@@H](C)[C@H](NC(=O)OC(C)(C)C(F)(F)F)C(=O)N3C2)c2ccccc12 |  | 18 min | 0.6 nM | 0.4 nM | 0.5 nM | 4 nM | 1.6 nM | 2.3 nM | 
3 | COc1cnc(O[C@@H]2C[C@H]3C(=O)N[C@]4(C(=O)NS(=O)(=O)C5CC5)C[C@H]4/C=C\CC[C@H](C)C[C@@H](C)[C@H](NC(=O)OC(C)(C)C)C(=O)N3C2)c2cc(Cl)ccc12 | 50 nM |  | 5 nM | 4 nM | 19 nM |  | 700 nM | 25 nM | 
4 | CC[C@@H]1CCCC/C=C\[C@@H]2C[C@@]2(C(=O)NS(=O)(=O)C2CC2)NC(=O)[C@@H]2C[C@@H](Oc3ncc(OC)c4ccc(Cl)cc34)CN2C(=O)[C@H]1NC(=O)OC(C)(C)C(F)(F)F | 29.5 nM | 48 min | 0.84 nM | 0.47 nM | 2.1 nM |  | 45.2 nM | 4.8 nM | 
5 | COc1cnc(O[C@@H]2C[C@H]3C(=O)N[C@]4(C(=O)NS(=O)(=O)C5CC5)C[C@H]4/C=C\CCCC[C@@H](C)[C@H](NC(=O)OC(C)(C)C)C(=O)N3C2)c2cc(Cl)ccc12 | 11 nM | 11.5 min | 0.9 nM | 0.25 nM | 1.1 nM | 75.5 nM | 10.7 nM | 1.9 nM | 
6 | C=C[C@@H]1C[C@]1(NC(=O)[C@@H]1C[C@@H](Oc2ncc(OC)c3ccc(Cl)cc23)CN1C(=O)[C@@H](NC(=O)OC(C)(C)C)C(C)(C)C)C(=O)NS(=O)(=O)C1CC1 | 395 nM |  | 4 nM | 1.2 nM | 217 nM | 407 nM | 150 nM | 187 nM | concentration at 24 h [9]: 33 nM; concentration at 24 h [10]: 15 µM; bioavailability [11]: 14%; half-life [12]: 60 min; clearance [13]: 38 mL/min/kg; AUC [14]: 1.2 µM·h; clearance [15]: 18.7 mL/min/kg; AUC [16]: 2.2 µM·h; concentration at 24 h [17]: < 10 nM; half-life [18]: 78 min; AUC [19]: 0.65 µM·h
7 | C[C@@H]1CC/C=C\[C@@H]2C[C@@]2(C(=O)NS(=O)(=O)C2CC2)NC(=O)[C@@H]2C[C@@H](Oc3nccc4ccc(F)cc34)CN2C(=O)[C@@H](NC(=O)OC(C)(C)C(F)(F)F)[C@H](C)C1 | 20 nM | 10 min | 1 nM | 0.3 nM | 3 nM | 196 nM | 21 nM |  | 
8 | COc1cnc(O[C@@H]2C[C@H]3C(=O)N[C@]4(C(=O)NS(=O)(=O)C5CC5)C[C@H]4/C=C\CCCC[C@@H](C)[C@H](NC(=O)OC(C)(C)C(F)(F)F)C(=O)N3C2)c2cc(Cl)ccc12 | 12.8 nM | 30.3 min | 0.6 nM | 0.48 nM | 1.7 nM | 42.5 nM | 17.9 nM | 6.8 nM | 
9 | COc1cnc(O[C@@H]2C[C@H]3C(=O)N[C@]4(C(=O)NS(=O)(=O)C5(C)CC5)C[C@H]4/C=C\CC[C@@H](C)C[C@@H](C)[C@H](NC(=O)OC(C)(C)C(F)(F)F)C(=O)N3C2)c2ccccc12 | 0.9 nM | 15 min | 0.8 nM | 0.3 nM | 0.6 nM | 5 nM | 1.6 nM | 4.7 nM | clearance [20]: 1.7 mL/min/kg; half-life [21]: 342 min; AUC(0-t) at 24 h [22]: 34.2 µM·h; Cmax [23]: 5.29 µM; concentration at 24 h [9]: 226 nM; concentration at 24 h [10]: 5.74 µM; Kp at 24 h [24]: 25; bioavailability [11]: 60%
10 | CC[C@@H]1C[C@H](C)CC/C=C\[C@@H]2C[C@@]2(C(=O)NS(=O)(=O)C2(C)CC2)NC(=O)[C@@H]2C[C@@H](Oc3ncc(OC)c4ccccc34)CN2C(=O)[C@H]1NC(=O)OC(C)(C)C(F)(F)F | 1.9 nM | 23 min | 0.8 nM | 0.4 nM | 1.1 nM | 7.4 nM | 5.4 nM | 5.4 nM | clearance [20]: 1.7 mL/min/kg; half-life [21]: 438 min; AUC(0-t) at 24 h [22]: 22.5 µM·h; Cmax [23]: 3.03 µM; concentration at 24 h [9]: 229 nM; concentration at 24 h [10]: 2.67 µM; Kp at 24 h [24]: 12; bioavailability [11]: 42%
11 | COc1cnc(O[C@@H]2C[C@H]3C(=O)N[C@]4(C(=O)NS(=O)(=O)C5CC5)C[C@H]4/C=C\CCCC[C@@H](C)[C@H](NC(=O)OC(C)(C)C(F)(F)F)C(=O)N3C2)c2ccccc12 | 2.2 nM | 18.6 min | 0.8 nM | 0.3 nM | 1.5 nM | 37.3 nM | 11.5 nM | 21 nM | 
12 | COc1cnc(O[C@@H]2C[C@H]3C(=O)N[C@]4(C(=O)NS(=O)(=O)C5CC5)C[C@H]4/C=C\CC[C@@H](C)C[C@@H](C)[C@H](NC(=O)OC(C)(C)C)C(=O)N3C2)c2cc(Cl)ccc12 | 4.4 nM | 6.7 min | 1.2 nM | 0.6 nM | 1.2 nM |  | 4 nM | 1.3 nM | 
13 | CC[C@@H]1C[C@H](C)CC/C=C\[C@@H]2C[C@@]2(C(=O)NS(=O)(=O)C2(C)CC2)NC(=O)[C@@H]2C[C@@H](Oc3nccc4cc(O)c(F)cc34)CN2C(=O)[C@H]1NC(=O)OC(C)(C)C(F)(F)F |  | 37 min |  | 1.3 nM | 1.9 nM | 48 nM | 3.9 nM | 9.5 nM | inhibition (INH) (Cytochrome P450 3A4 [25]): Tde; inhibition (INH) (Cytochrome P450 3A4 [26]): Tde
14 | CC[C@@H]1C[C@H](C)CC/C=C\[C@@H]2C[C@@]2(C(=O)NS(=O)(=O)C2CC2)NC(=O)[C@@H]2C[C@@H](Oc3ncc(OC)c4ccccc34)CN2C(=O)[C@H]1NC(=O)OC(C)(C)C | 0.16 nM | 8.6 min | 2.2 nM | 1.5 nM | 5.1 nM |  | 12.6 nM | 18 nM | 
15 | CC[C@@H]1C[C@H](C)CC/C=C\[C@@H]2C[C@@]2(C(=O)NS(=O)(=O)C2CC2)NC(=O)[C@@H]2C[C@@H](Oc3ncc(OC)c4ccccc34)CN2C(=O)[C@H]1NC(=O)OC(C)(C)C(F)(F)F | 1.2 nM | 37.7 min | 1 nM | 0.5 nM | 1.5 nM | 8 nM | 8.3 nM | 17 nM | clearance [20]: 5.73 mL/min/kg; half-life [21]: 288 min; AUC(0-t) at 24 h [22]: 18.8 µM·h; Cmax [23]: 2.95 µM; concentration at 24 h [9]: 72 nM; concentration at 24 h [10]: 2.36 µM; Kp at 24 h [24]: 33; bioavailability [11]: 61%
